{"source": "patent US10710978B2", "about": "“STK4 inhibitors for treatment of hematologic malignancies” (Dana-Farber Cancer Institute, Inc., priority 2015, dated 2020)", "test_in_all_cases": "KiNativ assay", "assay_type_in_all_cases": "binding", "details_in_all_cases": "H929 live cell", "key": {"ATR": {"molecular_target": "ATR (Homo sapiens (Human), UniProt Q13535)", "method": "(§1) Biochemical IC50s of the compounds of the present disclosure against various kinases were measured in a KiNativ assay. Compounds were screened in duplicate at 10 μM in H929 live cell. IC50 was measured via Mass spectroscopy (MS)."}, "MASTL": {"molecular_target": "MASTL (Homo sapiens (Human), UniProt Q96GX5)", "method": "as §1"}, "TBK1": {"molecular_target": "TBK1 (Homo sapiens (Human), UniProt Q9UHD2)", "method": "as §1"}, "[1]": {"test_system": "RSK1 domain1, RSK2 domain1, RSK3 domain1", "method": "as §1"}, "MAPKAPK2, MAPKAPK3": {"test_system": "MAPKAPK2, MAPKAPK3", "method": "as §1"}, "MAP2K1": {"molecular_target": "MAP2K1 (Homo sapiens (Human), UniProt Q02750)", "method": "as §1"}, "MST4, YSK1": {"test_system": "MST4, YSK1", "method": "as §1"}, "Erk1": {"molecular_target": "Erk1 (Homo sapiens (Human), UniProt P27361)", "method": "as §1"}, "MST4": {"test_system": "MST4", "method": "as §1"}, "CDK2": {"molecular_target": "CDK2 (Homo sapiens (Human), UniProt P24941)", "method": "as §1"}, "AurA, AurB, AurC": {"test_system": "AurA, AurB, AurC", "method": "as §1"}, "NDR2": {"molecular_target": "NDR2 (Homo sapiens (Human), UniProt Q9Y2H1)", "method": "as §1"}, "RSKL1": {"molecular_target": "RSKL1 (Homo sapiens (Human), UniProt Q96S38)", "method": "as §1"}, "RSK2 domain2": {"molecular_target": "RSK2 domain2 (Homo sapiens (Human), UniProt P51812)", "method": "as §1"}, "LOK": {"molecular_target": "LOK (Homo sapiens (Human), UniProt O94804)", "sequence (O94804 whole entry)": "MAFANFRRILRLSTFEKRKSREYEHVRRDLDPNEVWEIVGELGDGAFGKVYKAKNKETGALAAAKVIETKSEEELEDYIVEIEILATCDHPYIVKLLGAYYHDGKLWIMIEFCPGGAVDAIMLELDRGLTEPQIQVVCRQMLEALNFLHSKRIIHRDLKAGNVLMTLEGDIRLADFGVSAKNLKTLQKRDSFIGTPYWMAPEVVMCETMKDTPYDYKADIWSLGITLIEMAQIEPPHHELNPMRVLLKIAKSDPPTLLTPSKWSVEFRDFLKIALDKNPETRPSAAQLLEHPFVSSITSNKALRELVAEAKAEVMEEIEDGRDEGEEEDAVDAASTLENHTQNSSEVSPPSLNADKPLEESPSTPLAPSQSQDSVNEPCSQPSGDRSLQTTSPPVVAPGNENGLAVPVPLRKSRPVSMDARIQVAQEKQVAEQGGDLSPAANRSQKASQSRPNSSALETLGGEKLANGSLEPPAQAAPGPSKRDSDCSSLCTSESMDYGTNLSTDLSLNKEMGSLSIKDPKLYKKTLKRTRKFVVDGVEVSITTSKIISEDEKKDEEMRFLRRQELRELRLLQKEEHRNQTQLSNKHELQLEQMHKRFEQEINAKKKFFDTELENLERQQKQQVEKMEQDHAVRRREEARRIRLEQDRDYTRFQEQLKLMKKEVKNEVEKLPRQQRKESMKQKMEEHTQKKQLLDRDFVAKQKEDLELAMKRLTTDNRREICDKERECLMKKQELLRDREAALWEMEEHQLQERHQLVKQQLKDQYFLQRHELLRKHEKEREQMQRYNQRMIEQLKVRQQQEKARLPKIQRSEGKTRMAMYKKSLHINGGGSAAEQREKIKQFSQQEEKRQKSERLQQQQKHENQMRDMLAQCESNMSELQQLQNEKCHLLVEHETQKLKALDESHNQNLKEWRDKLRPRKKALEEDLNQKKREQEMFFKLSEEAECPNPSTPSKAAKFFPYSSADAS", "method": "as §1"}, "PIP4K2C": {"molecular_target": "PIP4K2C (Homo sapiens (Human), UniProt Q8TBX8)", "sequence (Q8TBX8 whole entry)": "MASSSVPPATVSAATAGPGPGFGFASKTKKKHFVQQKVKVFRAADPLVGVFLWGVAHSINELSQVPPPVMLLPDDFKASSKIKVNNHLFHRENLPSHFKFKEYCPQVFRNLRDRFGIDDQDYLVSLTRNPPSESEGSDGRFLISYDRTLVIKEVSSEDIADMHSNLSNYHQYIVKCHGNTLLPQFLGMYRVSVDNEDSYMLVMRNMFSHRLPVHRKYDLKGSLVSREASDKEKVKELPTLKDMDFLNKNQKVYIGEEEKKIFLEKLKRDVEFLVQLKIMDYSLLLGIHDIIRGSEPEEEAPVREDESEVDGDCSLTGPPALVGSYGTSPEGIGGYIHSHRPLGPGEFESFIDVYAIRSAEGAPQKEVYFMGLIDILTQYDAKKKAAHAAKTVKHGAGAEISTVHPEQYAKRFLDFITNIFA", "method": "as §1"}, "FYN, SRC, YES": {"test_system": "FYN, SRC, YES", "method": "as §1"}, "SRPK2": {"molecular_target": "SRPK2 (Homo sapiens (Human), UniProt P78362)", "sequence (P78362 whole entry)": "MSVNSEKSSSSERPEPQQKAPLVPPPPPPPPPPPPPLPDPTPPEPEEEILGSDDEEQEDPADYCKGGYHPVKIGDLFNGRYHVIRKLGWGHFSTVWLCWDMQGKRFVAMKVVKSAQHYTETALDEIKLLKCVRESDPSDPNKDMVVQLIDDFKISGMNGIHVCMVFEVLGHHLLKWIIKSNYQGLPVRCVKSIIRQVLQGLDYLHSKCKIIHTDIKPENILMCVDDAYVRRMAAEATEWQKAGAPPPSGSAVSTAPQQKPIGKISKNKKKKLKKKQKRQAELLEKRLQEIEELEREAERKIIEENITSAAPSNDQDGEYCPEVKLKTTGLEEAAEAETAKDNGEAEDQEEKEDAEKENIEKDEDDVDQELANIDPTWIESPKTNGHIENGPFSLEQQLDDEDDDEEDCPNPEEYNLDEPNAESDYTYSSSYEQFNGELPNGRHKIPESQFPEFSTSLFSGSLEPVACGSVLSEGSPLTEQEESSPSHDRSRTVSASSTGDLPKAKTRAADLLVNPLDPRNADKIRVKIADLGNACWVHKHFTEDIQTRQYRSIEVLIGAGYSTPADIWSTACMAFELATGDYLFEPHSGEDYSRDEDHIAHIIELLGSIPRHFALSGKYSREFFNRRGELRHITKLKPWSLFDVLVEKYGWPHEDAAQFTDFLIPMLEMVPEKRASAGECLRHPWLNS", "method": "as §1"}, "GCK": {"molecular_target": "GCK (Homo sapiens (Human), UniProt Q12851)", "method": "as §1"}, "STLK6": {"molecular_target": "STLK6 (Homo sapiens (Human), UniProt Q9C0K7)", "method": "as §1"}, "CK1a": {"molecular_target": "CK1a (Homo sapiens (Human), UniProt P48729)", "method": "as §1"}, "PAN3": {"molecular_target": "PAN3 (Homo sapiens (Human), UniProt Q58A45)", "method": "as §1"}, "NEK9": {"molecular_target": "NEK9 (Homo sapiens (Human), UniProt Q8TD19)", "sequence (Q8TD19 whole entry)": "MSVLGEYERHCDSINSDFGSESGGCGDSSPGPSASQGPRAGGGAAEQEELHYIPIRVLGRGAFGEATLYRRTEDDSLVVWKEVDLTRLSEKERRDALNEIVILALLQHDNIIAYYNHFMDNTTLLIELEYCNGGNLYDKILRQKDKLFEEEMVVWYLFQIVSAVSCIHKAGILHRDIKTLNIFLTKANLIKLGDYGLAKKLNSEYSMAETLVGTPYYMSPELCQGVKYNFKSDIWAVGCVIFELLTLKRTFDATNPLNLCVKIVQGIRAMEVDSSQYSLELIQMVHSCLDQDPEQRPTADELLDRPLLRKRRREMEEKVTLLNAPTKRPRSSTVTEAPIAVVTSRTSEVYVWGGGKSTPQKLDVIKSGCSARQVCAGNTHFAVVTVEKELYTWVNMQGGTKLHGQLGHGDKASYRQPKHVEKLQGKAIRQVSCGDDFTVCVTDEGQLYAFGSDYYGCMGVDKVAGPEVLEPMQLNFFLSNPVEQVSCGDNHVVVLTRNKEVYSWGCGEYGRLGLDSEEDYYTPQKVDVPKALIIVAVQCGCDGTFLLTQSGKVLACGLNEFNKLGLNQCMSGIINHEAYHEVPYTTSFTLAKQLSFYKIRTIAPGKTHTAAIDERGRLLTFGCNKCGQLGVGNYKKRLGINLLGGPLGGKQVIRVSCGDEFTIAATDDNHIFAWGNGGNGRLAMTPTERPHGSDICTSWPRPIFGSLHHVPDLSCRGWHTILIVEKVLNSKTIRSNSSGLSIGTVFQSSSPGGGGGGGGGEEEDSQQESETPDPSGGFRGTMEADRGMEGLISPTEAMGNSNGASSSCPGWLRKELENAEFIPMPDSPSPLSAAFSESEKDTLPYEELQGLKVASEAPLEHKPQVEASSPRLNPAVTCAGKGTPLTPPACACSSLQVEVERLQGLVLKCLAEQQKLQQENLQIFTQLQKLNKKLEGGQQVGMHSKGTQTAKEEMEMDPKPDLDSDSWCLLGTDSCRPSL", "method": "as §1"}, "PKN1": {"molecular_target": "PKN1 (Homo sapiens (Human), UniProt Q16512)", "method": "as §1"}, "CHK1": {"molecular_target": "CHK1 (Homo sapiens (Human), UniProt O14757)", "sequence (O14757 whole entry)": "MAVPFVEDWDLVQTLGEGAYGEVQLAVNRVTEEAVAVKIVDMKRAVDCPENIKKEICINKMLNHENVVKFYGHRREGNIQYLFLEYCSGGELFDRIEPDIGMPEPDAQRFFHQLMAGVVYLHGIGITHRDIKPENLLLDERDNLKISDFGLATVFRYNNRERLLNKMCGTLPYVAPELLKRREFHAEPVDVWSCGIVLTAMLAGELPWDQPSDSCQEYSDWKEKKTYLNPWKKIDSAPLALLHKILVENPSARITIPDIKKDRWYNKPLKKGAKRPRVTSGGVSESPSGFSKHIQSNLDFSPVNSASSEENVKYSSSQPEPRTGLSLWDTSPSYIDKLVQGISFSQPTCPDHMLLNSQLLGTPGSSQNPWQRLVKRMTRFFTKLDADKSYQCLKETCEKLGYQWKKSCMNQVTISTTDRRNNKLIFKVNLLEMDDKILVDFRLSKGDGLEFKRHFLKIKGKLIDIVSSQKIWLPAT", "method": "as §1"}, "ACK": {"molecular_target": "ACK (Homo sapiens (Human), UniProt Q07912)", "sequence (Q07912 whole entry)": "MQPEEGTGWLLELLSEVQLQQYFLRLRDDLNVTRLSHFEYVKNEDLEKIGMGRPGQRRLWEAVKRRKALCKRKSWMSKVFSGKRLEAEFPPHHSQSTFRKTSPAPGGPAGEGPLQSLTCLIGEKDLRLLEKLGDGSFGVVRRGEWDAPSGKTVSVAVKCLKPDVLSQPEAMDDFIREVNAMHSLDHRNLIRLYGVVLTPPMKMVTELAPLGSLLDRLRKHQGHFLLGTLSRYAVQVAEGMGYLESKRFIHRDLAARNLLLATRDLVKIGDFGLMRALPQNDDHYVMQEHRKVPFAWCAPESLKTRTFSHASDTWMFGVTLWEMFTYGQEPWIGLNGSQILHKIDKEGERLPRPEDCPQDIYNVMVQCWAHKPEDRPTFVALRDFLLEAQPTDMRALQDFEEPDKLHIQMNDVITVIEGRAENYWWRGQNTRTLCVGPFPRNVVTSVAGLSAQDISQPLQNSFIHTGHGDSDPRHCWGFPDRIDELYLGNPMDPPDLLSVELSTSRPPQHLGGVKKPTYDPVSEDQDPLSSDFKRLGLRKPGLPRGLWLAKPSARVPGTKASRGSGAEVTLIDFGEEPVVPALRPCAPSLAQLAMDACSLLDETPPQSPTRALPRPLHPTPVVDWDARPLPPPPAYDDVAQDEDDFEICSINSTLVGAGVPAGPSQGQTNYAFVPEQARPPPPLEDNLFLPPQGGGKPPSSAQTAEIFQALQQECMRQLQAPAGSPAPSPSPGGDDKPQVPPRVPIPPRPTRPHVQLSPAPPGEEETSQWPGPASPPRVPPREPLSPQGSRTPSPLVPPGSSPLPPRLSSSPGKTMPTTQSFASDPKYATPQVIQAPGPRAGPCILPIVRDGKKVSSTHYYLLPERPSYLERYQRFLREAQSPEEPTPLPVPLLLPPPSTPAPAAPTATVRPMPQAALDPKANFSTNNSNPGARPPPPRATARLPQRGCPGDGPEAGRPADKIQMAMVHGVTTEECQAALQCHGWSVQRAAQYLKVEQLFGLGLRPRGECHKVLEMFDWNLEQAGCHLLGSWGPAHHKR", "method": "as §1"}, "PIP5K3": {"molecular_target": "PIP5K3 (Homo sapiens (Human), UniProt Q9Y2I7)", "method": "as §1"}, "PITSLRE": {"test_system": "PITSLRE", "method": "as §1"}, "RSK2 domain1": {"molecular_target": "RSK2 domain1 (Homo sapiens (Human), UniProt P51812)", "method": "as §1"}, "MST1, MST2": {"test_system": "MST1, MST2", "method": "as §1"}, "CK1g3": {"molecular_target": "CK1g3 (Homo sapiens (Human), UniProt Q9Y6M4)", "sequence (Q9Y6M4 whole entry)": "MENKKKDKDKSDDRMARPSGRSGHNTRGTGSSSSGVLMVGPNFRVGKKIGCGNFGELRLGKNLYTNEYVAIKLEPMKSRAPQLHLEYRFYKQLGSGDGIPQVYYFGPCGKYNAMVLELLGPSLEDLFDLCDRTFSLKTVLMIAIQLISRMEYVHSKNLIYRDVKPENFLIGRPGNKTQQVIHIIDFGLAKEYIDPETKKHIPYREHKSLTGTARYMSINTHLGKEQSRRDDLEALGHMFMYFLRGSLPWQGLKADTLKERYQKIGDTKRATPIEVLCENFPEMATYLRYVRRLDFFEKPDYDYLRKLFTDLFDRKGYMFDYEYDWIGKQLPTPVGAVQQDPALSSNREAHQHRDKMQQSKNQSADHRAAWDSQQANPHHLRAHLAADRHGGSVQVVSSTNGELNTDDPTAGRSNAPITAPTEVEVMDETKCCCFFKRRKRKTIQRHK", "method": "as §1"}, "TAO2": {"molecular_target": "TAO2 (Homo sapiens (Human), UniProt Q9UL54)", "method": "as §1"}, "TLK2": {"molecular_target": "TLK2 (Homo sapiens (Human), UniProt Q86UE8)", "method": "as §1"}, "MAP2K4": {"molecular_target": "MAP2K4 (Homo sapiens (Human), UniProt P45985)", "method": "as §1"}, "[2]": {"details": "range class, read-out: % inhibition"}}, "note": "Like-named read-outs stand apart in the source and are kept apart here.", "data": [{"smiles": "COc1cc(NS(=O)(=O)C2CC2)ccc1-c1cnc(N)c(-c2ccc3c(c2)CCNC3=O)c1", "note": "[Compound I-50, N-(4-(6-amino-5-(1-oxo-1,2,3,4-tetrahydroisoquinolin-6-yl)pyridin-3-yl)-3-methoxyphenyl) cyclopropanesulfonamide]", "values": [{"measurement": "inhibition at 10 µM", "setting": "ATR; [2]", "value": 0, "unit": "%"}, {"measurement": "inhibition at 10 µM", "setting": "ATR; read-out: inhibition (10 μM)", "value": 17.1, "unit": "%"}, {"measurement": "inhibition at 10 µM", "setting": "MASTL; [2]", "value": 0, "unit": "%"}, {"measurement": "inhibition at 10 µM", "setting": "MASTL; read-out: inhibition (10 μM)", "value": -1.4, "unit": "%"}, {"measurement": "inhibition at 10 µM", "setting": "TBK1; [2]", "value": 0, "unit": "%"}, {"measurement": "inhibition at 10 µM", "setting": "TBK1; read-out: inhibition (10 μM)", "value": 31.4, "unit": "%"}, {"measurement": "% inhibition", "setting": "[1]; 10 μM, range class", "value": 0.0, "unit": "%"}, {"measurement": "inhibition (10 μM)", "setting": "[1]", "value": 15.8, "unit": "%"}, {"measurement": "% inhibition", "setting": "MAPKAPK2, MAPKAPK3; 10 μM, range class", "value": 0.0, "unit": "%"}, {"measurement": "inhibition (10 μM)", "setting": "MAPKAPK2, MAPKAPK3", "value": "−34.3", "unit": "%"}, {"measurement": "inhibition at 10 µM", "setting": "MAP2K1; [2]", "value": 0, "unit": "%"}, {"measurement": "inhibition at 10 µM", "setting": "MAP2K1; read-out: inhibition (10 μM)", "value": 17.8, "unit": "%"}, {"measurement": "% inhibition", "setting": "MST4, YSK1; 10 μM, range class", "value": "35-40%"}, {"measurement": "inhibition (10 μM)", "setting": "MST4, YSK1", "value": 35.4, "unit": "%"}, {"measurement": "inhibition at 10 µM", "setting": "Erk1; [2]", "value": 0, "unit": "%"}, {"measurement": "inhibition at 10 µM", "setting": "Erk1; read-out: inhibition (10 μM)", "value": 29, "unit": "%"}, {"measurement": "% inhibition", "setting": "MST4; 10 μM, range class", "value": 0.0, "unit": "%"}, {"measurement": "inhibition (10 μM)", "setting": "MST4", "value": "−68.1", "unit": "%"}, {"measurement": "inhibition at 10 µM", "setting": "CDK2; [2]", "value": 0, "unit": "%"}, {"measurement": "inhibition at 10 µM", "setting": "CDK2; read-out: inhibition (10 μM)", "value": 17.3, "unit": "%"}, {"measurement": "% inhibition", "setting": "AurA, AurB, AurC; 10 μM, range class", "value": 0.0, "unit": "%"}, {"measurement": "inhibition (10 μM)", "setting": "AurA, AurB, AurC", "value": 17.8, "unit": "%"}, {"measurement": "inhibition at 10 µM", "setting": "NDR2; [2]", "value": 0, "unit": "%"}, {"measurement": "inhibition at 10 µM", "setting": "NDR2; read-out: inhibition (10 μM)", "value": 4.5, "unit": "%"}, {"measurement": "inhibition at 10 µM", "setting": "RSKL1; [2]", "value": 0, "unit": "%"}, {"measurement": "inhibition at 10 µM", "setting": "RSKL1; read-out: inhibition (10 μM)", "value": 3.2, "unit": "%"}, {"measurement": "inhibition at 10 µM", "setting": "RSK2 domain2; [2]", "value": 0, "unit": "%"}, {"measurement": "inhibition at 10 µM", "setting": "RSK2 domain2; read-out: inhibition (10 μM)", "value": -1.4, "unit": "%"}, {"measurement": "inhibition at 10 µM", "setting": "LOK; [2]", "value": "> 90", "unit": "%"}, {"measurement": "inhibition at 10 µM", "setting": "LOK; read-out: inhibition (10 μM)", "value": 91.6, "unit": "%"}, {"measurement": "inhibition at 10 µM", "setting": "PIP4K2C; [2]", "value": "> 90", "unit": "%"}, {"measurement": "inhibition at 10 µM", "setting": "PIP4K2C; read-out: inhibition (10 μM)", "value": 90.6, "unit": "%"}, {"measurement": "% inhibition", "setting": "FYN, SRC, YES; 10 μM, range class", "value": 0.0, "unit": "%"}, {"measurement": "inhibition (10 μM)", "setting": "FYN, SRC, YES", "value": "−2.0", "unit": "%"}, {"measurement": "inhibition at 10 µM", "setting": "SRPK2; [2]", "value": 0, "unit": "%"}, {"measurement": "inhibition at 10 µM", "setting": "SRPK2; read-out: inhibition (10 μM)", "value": 1.8, "unit": "%"}, {"measurement": "inhibition at 10 µM", "setting": "GCK; [2]", "value": "> 90", "unit": "%"}, {"measurement": "inhibition at 10 µM", "setting": "GCK; read-out: inhibition (10 μM)", "value": 95.2, "unit": "%"}, {"measurement": "inhibition at 10 µM", "setting": "STLK6; [2]", "value": 0, "unit": "%"}, {"measurement": "inhibition at 10 µM", "setting": "STLK6; read-out: inhibition (10 μM)", "value": -15, "unit": "%"}, {"measurement": "inhibition at 10 µM", "setting": "CK1a; [2]", "value": 0, "unit": "%"}, {"measurement": "inhibition at 10 µM", "setting": "CK1a; read-out: inhibition (10 μM)", "value": -20.9, "unit": "%"}, {"measurement": "inhibition at 10 µM", "setting": "PAN3; [2]", "value": 0, "unit": "%"}, {"measurement": "inhibition at 10 µM", "setting": "PAN3; read-out: inhibition (10 μM)", "value": 14.3, "unit": "%"}, {"measurement": "inhibition at 10 µM", "setting": "NEK9; [2]", "value": 0, "unit": "%"}, {"measurement": "inhibition at 10 µM", "setting": "NEK9; read-out: inhibition (10 μM)", "value": 5.9, "unit": "%"}, {"measurement": "inhibition at 10 µM", "setting": "PKN1; [2]", "value": 0, "unit": "%"}, {"measurement": "inhibition at 10 µM", "setting": "PKN1; read-out: inhibition (10 μM)", "value": -39.9, "unit": "%"}, {"measurement": "inhibition at 10 µM", "setting": "CHK1; [2]", "value": 0, "unit": "%"}, {"measurement": "inhibition at 10 µM", "setting": "CHK1; read-out: inhibition (10 μM)", "value": -9.6, "unit": "%"}, {"measurement": "inhibition at 10 µM", "setting": "ACK; [2]", "value": 0, "unit": "%"}, {"measurement": "inhibition at 10 µM", "setting": "ACK; read-out: inhibition (10 μM)", "value": 11.3, "unit": "%"}, {"measurement": "inhibition at 10 µM", "setting": "PIP5K3; [2]", "value": "75 to 90", "unit": "%"}, {"measurement": "inhibition at 10 µM", "setting": "PIP5K3; read-out: inhibition (10 μM)", "value": 79.7, "unit": "%"}, {"measurement": "% inhibition", "setting": "PITSLRE; 10 μM, range class", "value": 0.0, "unit": "%"}, {"measurement": "inhibition (10 μM)", "setting": "PITSLRE", "value": "−27.6", "unit": "%"}, {"measurement": "inhibition at 10 µM", "setting": "RSK2 domain1; [2]", "value": 0, "unit": "%"}, {"measurement": "inhibition at 10 µM", "setting": "RSK2 domain1; read-out: inhibition (10 μM)", "value": 21, "unit": "%"}, {"measurement": "% inhibition", "setting": "MST1, MST2; 10 μM, range class", "value": ">90", "unit": "%"}, {"measurement": "inhibition (10 μM)", "setting": "MST1, MST2", "value": 98.7, "unit": "%"}, {"measurement": "inhibition at 10 µM", "setting": "CK1g3; [2]", "value": "75 to 90", "unit": "%"}, {"measurement": "inhibition at 10 µM", "setting": "CK1g3; read-out: inhibition (10 μM)", "value": 77.1, "unit": "%"}, {"measurement": "inhibition at 10 µM", "setting": "TAO2; [2]", "value": 0, "unit": "%"}, {"measurement": "inhibition at 10 µM", "setting": "TAO2; read-out: inhibition (10 μM)", "value": 9, "unit": "%"}, {"measurement": "inhibition at 10 µM", "setting": "TLK2; [2]", "value": 0, "unit": "%"}, {"measurement": "inhibition at 10 µM", "setting": "TLK2; read-out: inhibition (10 μM)", "value": -3, "unit": "%"}, {"measurement": "inhibition at 10 µM", "setting": "MAP2K4; [2]", "value": "35 to 40", "unit": "%"}, {"measurement": "inhibition at 10 µM", "setting": "MAP2K4; read-out: inhibition (10 μM)", "value": 37.5, "unit": "%"}]}]}
